≈ marks a conversion by molar mass, not a printed value. Where “and” joins values, the source holds several entries; their conditions need not be identical. Identical values can stand only once. Like-named read-outs stand apart in the source and are kept apart here.
Legend:
[1] = Phase II sulfonation stability in human liver S9 fraction (+PAPS); type: in vitro ADME; details: pH 7.4, human liver S9, 1 μM, read-out: in vitro t1/2, sulfonation
Procedure: (§1) Phase II sulfonation assays were carried out in the presence of HLS9 or MLS9 fractions, as previously reported. The co-factor PAPS was incubated together with MgCl2, DTT, and UniPR compounds. The detailed experimental protocols for in vitro phase I and II metabolic stability assays are reported in Sections S.1–S.3 of the Supplementary Material. […] A 100 µL aliquot of the reaction mixture was extracted at the beginning of the experiment (t = 0) and at t = 180 min and processed as for the metabolic stability samples.
In vitro half-life (t1/2) in MLM and MLS9 fraction was calculated from the slope (k, Equation (1)) of the linear regression model obtained by fitting the log percentage UniPR compound remaining vs. time. in vitro t1/2 = −0.693/k (1) […]
S.1 In vitro phase I liver metabolism in MLM […]
(§2) Within-run accuracy and precision were checked employing QC samples representative of the whole calibration range (HQC = 800 nmol/l; MQC = 400 nmol/l; LQC = 5 nmol/l) with n = 3 replicates at each QC concentration level. […] The acceptance criteria for accuracy were to get back-calculated concentrations ± 15% of the nominal ones, except for the LLOQ, which had to be ± 20%. The acceptance criteria for precision, expressed as relative standard

[2] = mice, cited from earlier work
[3] = Phase II sulfonation stability in mouse liver S9 fraction (+PAPS); type: in vitro ADME; details: mouse liver S9, 1 μM
Procedure: as §1
(§3) S.1 In vitro phase I liver metabolism in MLM
(§4) In phase I metabolic stability assays, samples were prepared in 100 mM phosphate buffered saline (PBS), pH 7.4, containing a NADPH-generating system (5 mM MgCl2, 10 mM glucose-6-phosphate, 2 mM NADP+, 1.5 U/mL of glucose-6-phosphate dehydrogenase) and 1 mg/mL mouse liver […]
solutions in DMSO were added to start the reaction. Final DMSO percentage in samples was kept at 1%. […]
as §2

[4] = Phase I metabolic stability in mouse liver microsomes (MLM) with NADPH-generating system; type: in vitro ADME; details: for in vitro half-life (t1/2), phase I metabolism / half-life at 1 µM: NADPH-generating system; for half-life at 1 µM: pH 7.4, MLM, read-out: in vitro half-life (t1/2), phase I metabolism
[5] = 24 h incubation at 37 °C; cited from earlier work
[6] = cited from earlier work
[7] = Phase II glucuronidation stability in MLM (+UDPGA); type: in vitro ADME, mouse; details: 1 μM
Procedure: Phase I metabolic stability assays on UniPR compounds were carried out in the presence of MLM (final protein concentration: 1 mg/mL) following published procedures. MLM were also employed in phase II glucuronidation assays employing UDPGA as activating co-factor.
as §3, §4
solutions in DMSO were added to start the reaction. Final DMSO percentage in samples was kept at 1%. At fixed time points (t = 0, 15, 30, 45, 60 min), single aliquots of reaction mixture were withdrawn, processed with two vol. of ACN containing 100 nM UniPR126, centrifuged (16000 g, 10 min, 4 °C) and the supernatant was directly injected in the HPLC-ESI-MS/MS system. […]
as §2

[8] = In vivo pharmacokinetics in mice after single oral dose, plasma levels by HPLC-MS/MS; details: 30 mg/kg p.o.; for AUC(0-t): non-compartmental analysis
Procedure: Male mice (breed: C57BL/6J) were supplied by Charles River Labs, Milan, Italy. Mice were submitted to 12 h light-dark cycles under standard temperature and humidity conditions, with free access to water and chow. All experimental procedures were carried out following the European Community Council Directive 2010/63/UE, Italian regulations (DL 26/2014), and the ethical committee guidelines for animal research. […] Blood aliquots were withdrawn by tail puncture into heparinized tubes, centrifuged to collect plasma (2000× g, 10 min, 4 °C), and stored at −80 °C until analysis by HPLC-ESI-MS/MS. Details on the employed bioanalytical method and HPLC-ESI-MS/MS analytical conditions are given in Section S.4 of the Supplementary Material.
Microsoft Excel 365 (Microsoft Corp., Redmond, WA, USA) was employed for data analysis. GraphPad Prism v. 6.01 (GraphPad Software Inc., La Jolla, CA, USA) was employed for plotting graphs. The freeware software PCModFit V.6.7 (Add-on for Microsoft Excel) was employed for AUC calculations by non-compartmental analysis (NCA). […]
Calibration standards (CS, concentration range: 1000-2 nmol/L) were prepared by spiking blank […]
= 1%). Specificity of the method was checked comparing HPLC-MS/MS chromatograms of blank […]
Within-run accuracy and precision were checked employing QC samples representative of the whole calibration range (HQC = 800 nmol/l; MQC = 400 nmol/l; LQC = 5 nmol/l) with n = 3 replicates at each QC concentration level. Between-run accuracy and precision were checked employing QC samples at n=3 concentration levels in n = 3 analytical runs over three days. The acceptance criteria for accuracy were to get back-calculated concentrations ± 15% of the nominal ones, except for the LLOQ, which had to be ± 20%. The acceptance criteria for precision, expressed as relative standard

[9] = n-octanol/buffer pH 7.4, cited from earlier work
[10] = cited from earlier work; remark: listed apart in the source
EphA2-Fc = EphA2-Fc (Mus musculus, UniProt Q03145); test: Surface plasmon resonance (SPR) binding to sensorchip-immobilized EphA2-Fc
Chain of EphA2-Fc (Q03145 26-538): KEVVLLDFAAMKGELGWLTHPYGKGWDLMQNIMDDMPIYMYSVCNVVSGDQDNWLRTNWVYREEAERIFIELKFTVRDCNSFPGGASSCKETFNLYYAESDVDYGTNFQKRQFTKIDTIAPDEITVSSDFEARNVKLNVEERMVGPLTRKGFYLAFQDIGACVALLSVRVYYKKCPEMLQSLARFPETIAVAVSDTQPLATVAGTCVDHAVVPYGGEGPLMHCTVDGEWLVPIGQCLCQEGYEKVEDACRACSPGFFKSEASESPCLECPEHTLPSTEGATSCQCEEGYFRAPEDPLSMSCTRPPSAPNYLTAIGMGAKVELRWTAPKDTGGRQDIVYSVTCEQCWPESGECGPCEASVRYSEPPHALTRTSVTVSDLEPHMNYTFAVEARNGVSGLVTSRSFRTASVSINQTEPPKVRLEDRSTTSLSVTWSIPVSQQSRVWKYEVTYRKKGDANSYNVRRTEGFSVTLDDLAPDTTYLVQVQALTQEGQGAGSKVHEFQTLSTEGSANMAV
Procedure: SPR measurements were performed on a BIAcore X100 instrument (GE-Healthcare, Milwaukee, WI, USA), using research-grade CM4 carboxyl-methyl-dextran-coated sensorchips (GE-Healthcare). SPR was exploited to measure changes in refractive index caused by the binding of UniPR500 to surface-immobilized EphA2. […] Binding parameters were calculated by the non-linear curve fitting software package BIA evaluation 3.2 using a single site model with correction for mass transfer. The dissociation constant (Kd) was either derived from the dissociation rate (koff)/association rate (kon) ratio (kinetics) or by steady-state analysis (being fitted with the proper form of Scatchard’s equation for the plot of the bound RU at equilibrium vs. the ligand concentration in solution).

[11] = Lipophilicity, distribution coefficient n-octanol/buffer pH 7.4; type: physicochemical
[12] = design: method as in PMID 31891876, PMID 32927068; details: reference substrates; cited from earlier work
[13] = male, C57BL/6J, mouse, plasma, po

C[C@H](CCC(=O)N[C@H](CC(=O)O)Cc1c[nH]c2ccccc12)[C@H]1CC[C@H]2[C@@H]3CC[C@@H]4C[C@H](O)CC[C@]4(C)[C@H]3CC[C@]12C [UniPR129, N-(3α-hydroxy-5β-cholan-24-oyl)-L-β-homotryptophan]
half-life at 1 µM [1]: 61.1 ± 4.3 min | plasma levels after oral administration ([2]; 30 mg/kg oral dose): low nanomolar range | Tmax ([2]; 30 mg/kg p.o.): 60 min | Cmax ([2]; 30 mg/kg p.o., read-out: Cmax in plasma): 13.6 ± 1.2 nM | percentage remaining at t = 60 min, sulfonation [3]: 86.2 ± 5.3% | change in concentration in the absence of the NADPH-generating system ([4]; MLM control without NADPH-generating system): No decrease | in vitro half-life (t1/2), phase I metabolism ([4]; MLM, 1 μM): 17 min | classification of in vitro phase I intrinsic clearance ([4]; classification bands of ref 19): high clearance compound | half-life at 1 µM ([4]; mouse, liver microsomes, 1 μM): 16.8 min | microsomal CLint at 1 µM ([4]; mouse, liver microsomes, pH 7.4, MLM, 1 μM, estimate from t1/2, read-out: phase I intrinsic clearance (CL'int)): 41.4 µL/min/mg | percentage recovered in mouse plasma [5]: 98.3 ± 9.5% | plasma protein binding (%bound) [6]: 98% | percentage of intact compound at t = 60 min, glucuronidation [7]: 85.7 ± 2.7% | AUC(0-t) [8, 13]: 0.0406 µM·h | Log Doct,7.4 [9]: 4.90 ± 0.15 | Log Doct,7.4 ([9]; evaluated in a previous paper): 4.90 | kinetic solubility ([10]; PBS buffer pH 7.4): 18.3 ± 2.4 µg/mL (≈ 31.7 µM) | kinetic solubility ([10]; previously measured): 18 µg/mL (≈ 31.2 µM)

C[C@H](CCC(=O)N[C@H](CC(=O)O)Cc1c[nH]c2ccccc12)[C@H]1CC[C@H]2[C@@H]3CCC4CC(=NO)CC[C@]4(C)[C@H]3CC[C@]12C (stereo partly drawn) [UniPR500, N-(3-hydroxyimino-cholan-24-oyl)-L-β-homotryptophan]
half-life at 1 µM [1]: 58.6 ± 6.1 min | concentration at which saturation binding is reached (EphA2-Fc): around 25 μM | percentage remaining at t = 60 min, sulfonation [3]: 81.0 ± 4.0% | in vitro half-life (t1/2), phase I metabolism ([4]; MLM, 1 μM): 60 min | half-life at 1 µM ([4]; mouse, liver microsomes, 1 μM): 60.4 min | percentage of intact compound at t = 60 min, glucuronidation [7]: 79.5 ± 2.9% | fold increase of AUC (0–6 h) with respect to UniPR129 [8]: 43 fold | Tmax [8, 13]: 30 min | Cmax ([8]; male, C57BL/6J, mouse, plasma, po, mean ± S.E.M., n = 4, read-out: maximal plasma concentration (Cmax)): 609 ± 102 nM | concentration at 1 h ([8]; male, C57BL/6J, mouse, plasma, po, mean ± S.E.M., read-out: plasma concentration at 1 h post-dose): 344 ± 29 nM | concentration at 6 h ([8]; male, C57BL/6J, mouse, plasma, po, mean ± S.E.M., read-out: plasma concentration at 6 h post-dose): 237 ± 24 nM | AUC(0-t) [8, 13]: 1.75 µM·h | Log Doct,7.4 ([9]; evaluated in a previous paper): 4.23 ± 0.11 and 4.23 | decrease of Log Doct,7.4 with respect to UniPR129 [11]: approximately 0.7 log unit | kinetic solubility ([10]; previously measured): 30.6 ± 2.6 µg/mL and 30 µg/mL

O=C(O)Cc1ccccc1Nc1c(Cl)cccc1Cl [diclofenac]
t1/2 of known phase I CYP substrates [12]: ~6 min
